Laboratory results: patent publication US11634390B2, “Agricultural chemicals” (GLOBACHEM NV, priority 2016, dated 2023)

Columns and labels:
Assay type in all cases: in vivo
Abutilon theophrasti = test: Herbicidal screen, post-emergence spray of seedlings in pots: velvetleaf; design: key to percentage increase in necrosis relative to the control: no detected effect at this concentration; a percentage increase in necrosis relative to the control of 0.1-50; b: a percentage increase in necrosis of 50-80; a percentage increase in necrosis of 80-100; settings: assessed 10 days after treatment; for pest or weed control at 12.5 g/ha / pest or weed control at 25 g/ha / pest or weed control at 50 g/ha / pest or weed control at 100 g/ha: Abutilon theophrasti, post-emergence, 240 h, read-out: percentage increase in necrosis relative to the control
Method: (§1) Compounds were screened at four concentrations (100, 50, 25 and 12.5 g/ha) against four weed species (Stellaria media—Chickweed; Abutilon theophrasti—velvetleaf; Amaranthus retroflexus—common amaranthus; Echinochloa crus-galli—Barnyard grass) and maize as a crop species. Seed were sown in 12.5 cm diameter pots (20 per pot for the weed species and 5 for maize). Seedlings were sprayed with 2 ml of compound two weeks after sowing, with 2 ml water used as the control. Each treatment was replicated three times. Plants were maintained at 20° C. and assessed 10 days after treatment. The assessment was based on the % plant in each pot showing growth. The data is presented in Table 1 in which d represents no detected effect at this concentration; c represents a percentage increase in necrosis relative to the control of 0.1-50; b represents a percentage increase in necrosis of 50-80; and a represents a percentage increase in necrosis of 80-100.

four weed species = test: Herbicidal screen, summary across the four weed species; settings: summary in words, 12.5-100 g/ha
Method: as §1

Amaranthus retroflexus = test: Herbicidal screen, post-emergence spray of seedlings in pots: common amaranthus; design: key to percentage increase in necrosis relative to the control: no detected effect at this concentration; a percentage increase in necrosis relative to the control of 0.1-50; b: a percentage increase in necrosis of 50-80; a percentage increase in necrosis of 80-100; settings: assessed 10 days after treatment; for pest or weed control at 12.5 g/ha / pest or weed control at 25 g/ha / pest or weed control at 50 g/ha / pest or weed control at 100 g/ha: Amaranthus retroflexus, post-emergence, 240 h, read-out: percentage increase in necrosis relative to the control
Method: as §1

Stellaria media = test: Herbicidal screen, post-emergence spray of seedlings in pots: Chickweed; design: key to percentage increase in necrosis relative to the control: no detected effect at this concentration; a percentage increase in necrosis relative to the control of 0.1-50; b: a percentage increase in necrosis of 50-80; a percentage increase in necrosis of 80-100; settings: assessed 10 days after treatment; for pest or weed control at 12.5 g/ha / pest or weed control at 25 g/ha / pest or weed control at 50 g/ha / pest or weed control at 100 g/ha: Stellaria media, post-emergence, 240 h, read-out: percentage increase in necrosis relative to the control
Method: as §1

maize = test: Herbicidal screen, post-emergence spray of seedlings in pots: crop species; design: key to percentage increase in necrosis relative to the control: no detected effect at this concentration; a percentage increase in necrosis relative to the control of 0.1-50; b: a percentage increase in necrosis of 50-80; a percentage increase in necrosis of 80-100; settings: assessed 10 days after treatment; for plant injury at 12.5 g/ha / plant injury at 25 g/ha / plant injury at 50 g/ha / plant injury at 100 g/ha: Zea mays, post-emergence, 240 h, read-out: percentage increase in necrosis relative to the control
Method: as §1

Echinochloa crus-galli = test: Herbicidal screen, post-emergence spray of seedlings in pots: Barnyard grass; design: key to percentage increase in necrosis relative to the control: no detected effect at this concentration; a percentage increase in necrosis relative to the control of 0.1-50; b: a percentage increase in necrosis of 50-80; a percentage increase in necrosis of 80-100; settings: assessed 10 days after treatment; for pest or weed control at 12.5 g/ha / pest or weed control at 25 g/ha / pest or weed control at 50 g/ha / pest or weed control at 100 g/ha: Echinochloa crus-galli, post-emergence, 240 h, read-out: percentage increase in necrosis relative to the control
Method: as §1

| Structure (SMILES) | pest or weed control at 12.5 g/ha (Abutilon theophrasti; 12.5 g/ha) [%] | pest or weed control at 25 g/ha (Abutilon theophrasti) [%] | pest or weed control at 50 g/ha (Abutilon theophrasti) [%] | pest or weed control at 100 g/ha (Abutilon theophrasti) [%] | herbicidal activity against the weed species (four weed species) | pest or weed control at 12.5 g/ha (Amaranthus retroflexus; 12.5 g/ha) [%] | pest or weed control at 25 g/ha (Amaranthus retroflexus; 25 g/ha) [%] | pest or weed control at 50 g/ha (Amaranthus retroflexus) [%] | pest or weed control at 100 g/ha (Amaranthus retroflexus) [%] | pest or weed control at 12.5 g/ha (Stellaria media; 12.5 g/ha) [%] | pest or weed control at 25 g/ha (Stellaria media; 25 g/ha) [%] | pest or weed control at 50 g/ha (Stellaria media; 50 g/ha) [%] | pest or weed control at 100 g/ha (Stellaria media) [%] | plant injury at 12.5 g/ha (maize; 12.5 g/ha) [%] | plant injury at 25 g/ha (maize; 25 g/ha) [%] | plant injury at 50 g/ha (maize) [%] | plant injury at 100 g/ha (maize) [%] | pest or weed control at 12.5 g/ha (Echinochloa crus-galli; 12.5 g/ha) [%] | pest or weed control at 50 g/ha (Echinochloa crus-galli) [%] | pest or weed control at 100 g/ha (Echinochloa crus-galli) [%] | further results |
| --- | --- | --- | --- | --- | --- | --- | --- | --- | --- | --- | --- | --- | --- | --- | --- | --- | --- | --- | --- | --- | --- |
| CCC1(S(=O)(=O)NC(=O)c2cc(-n3c(=O)cc(C(F)(F)F)n(C)c3=O)c(F)cc2Cl)CC1 [Example 17, 2-Chloro-N-((1-ethylcyclopropyl)sulfonyl)-4-fluoro-5-(3-methyl-2,6-dioxo-4-(trifluoromethyl)-3,6-dihydropyrimidin-1(2H)-yl)benzamide] | 0.1 to 50 | 0.1 to 50 | 50 to 80 | 80 to 100 | good activity across several of the weed species | 0.1 to 50 | 50 to 80 | 80 to 100 | 80 to 100 | 0.1 to 50 | 50 to 80 | 50 to 80 | 80 to 100 | 0.1 to 50 | 0.1 to 50 | 0.1 to 50 | 0.1 to 50 | 0.1 to 50 | 50 to 80 | 50 to 80 | pest or weed control at 25 g/ha (Echinochloa crus-galli; 25 g/ha): 50 to 80% |
| Cn1c(C(F)(F)F)cc(=O)n(-c2cc(C(=O)NS(=O)(=O)C3CCCCC3)c(Cl)cc2F)c1=O [Example 14, 2-Chloro-N-(cyclohexylsulfonyl)-4-fluoro-5-(3-methyl-2,6-dioxo-4-(trifluoromethyl)-3,6-dihydropyrimidin-1(2H)-yl)benzamide] | 50 to 80 | 50 to 80 | 80 to 100 | 80 to 100 | good activity across several of the weed species | 80 to 100 | 80 to 100 | 80 to 100 | 80 to 100 | 0.1 to 50 | 0.1 to 50 | 50 to 80 | 80 to 100 | 0.1 to 50 | 0.1 to 50 | 0.1 to 50 | 0.1 to 50 | 0.1 to 50 | 0.1 to 50 | 0.1 to 50 | pest or weed control at 25 g/ha (Echinochloa crus-galli; 25 g/ha): 0.1 to 50% |
| Cn1c(C(F)(F)F)cc(=O)n(-c2cc(C(=O)NS(=O)(=O)C3(C)CC3)c(Cl)cc2F)c1=O [Example 7, 2-Chloro-4-fluoro-5-(3-methyl-2,6-dioxo-4-(trifluoromethyl)-3,6-dihydropyrimidin-1(2H)-yl)-N-((1-methylcyclopropyl)sulfonyl)benzamide] | 0.1 to 50 | 80 to 100 | 80 to 100 | 80 to 100 | good activity across several of the weed species | 80 to 100 | 80 to 100 | 80 to 100 | 80 to 100 | 0.1 to 50 | 50 to 80 | 50 to 80 | 80 to 100 | 0.1 to 50 | 0.1 to 50 | 0.1 to 50 | 50 to 80 | 0.1 to 50 | 50 to 80 | 80 to 100 | pest or weed control at 25 g/ha (Echinochloa crus-galli; 25 g/ha): 0.1 to 50% |
| Cn1c(C(F)(F)F)cc(=O)n(-c2cc(C(=O)NS(=O)(=O)C3(F)CC3)c(Cl)cc2F)c1=O [Example 16, 2-Chloro-4-fluoro-N-((1-fluorocyclopropyl)sulfonyl)-5-(3-methyl-2,6-dioxo-4-(trifluoromethyl)-3,6-dihydropyrimidin-1(2H)-yl)benzamide] | 0.1 to 50 | 0.1 to 50 | 50 to 80 | 80 to 100 | good activity across several of the weed species | 0.1 to 50 | 0.1 to 50 | 80 to 100 | 80 to 100 | 0.1 to 50 | 0.1 to 50 | 0.1 to 50 | 80 to 100 | 0.1 to 50 | 0.1 to 50 | 0.1 to 50 | 0.1 to 50 | 0.1 to 50 | 50 to 80 | 50 to 80 | pest or weed control at 25 g/ha (Echinochloa crus-galli; 25 g/ha): 0.1 to 50% |
| Cn1c(C(F)(F)F)cc(=O)n(-c2cc(C(=O)NS(=O)(=O)C3CC3)ccc2F)c1=O [Example 15, N-(Cyclopropylsulfonyl)-4-fluoro-3-(3-methyl-2,6-dioxo-4-(trifluoromethyl)-3,6-dihydropyrimidin-1(2H)-yl)benzamide] |  | 0.1 to 50 | 50 to 80 | 50 to 80 |  |  |  | 50 to 80 | 50 to 80 |  |  |  | 0.1 to 50 |  |  | 0.1 to 50 | 0.1 to 50 |  | 0.1 to 50 | 0.1 to 50 | percentage increase in necrosis relative to the control (Abutilon theophrasti; 12.5 g/ha): d; percentage increase in necrosis relative to the control (Amaranthus retroflexus; 12.5 g/ha): d; percentage increase in necrosis relative to the control (Amaranthus retroflexus; 25 g/ha): d; percentage increase in necrosis relative to the control (Stellaria media; 12.5 g/ha): d; percentage increase in necrosis relative to the control (Stellaria media; 25 g/ha): d; percentage increase in necrosis relative to the control (Stellaria media; 50 g/ha): d; percentage increase in necrosis relative to the control (maize; 12.5 g/ha): d; percentage increase in necrosis relative to the control (maize; 25 g/ha): d; percentage increase in necrosis relative to the control (Echinochloa crus-galli; 12.5 g/ha): d; percentage increase in necrosis relative to the control (Echinochloa crus-galli; 25 g/ha): d |
